melting point [°C] | SMILES
90 to 96 | Nn1c(C(F)(F)F)cc(=O)n(-c2cc(Oc3ncccc3[N+](=O)[O-])c(Cl)cc2F)c1=O
249 to 251 | Cn1c(=O)cc(N)n(-c2ccc(Cl)cc2Cl)c1=O
210 | Cc1cc(C(=O)Nc2cccc(Oc3ccc4nc(NC(=O)CN(C)C)cn4n3)c2)n(C)n1
54 to 57.5 | CCOC(=O)NNC(C)=S
116 to 117 | COc1cccc(C2CCCCNC2=O)c1 (configuration not stated)
211 | CC(C)NC(=NC(=O)OCc1ccccc1)N=C1NC(=O)C(=O)N1c1ccc(Cl)c(Cl)c1
177 to 180 | Cc1cc(=O)oc2nn(Cc3ccncc3)c(C)c12
195 to 197 | O=C1C2CC=CCN2C(=O)N1c1cc(O)c(Cl)cc1F (configuration not stated)
63 to 65 | CCCCCCCCCCCCCCCCOC(=O)c1cc(C(=O)OCCCCCCCCCCCCCCCC)cc(S(=O)O)c1
95 to 98 | CCOc1noc2c1CN(C(=O)OC)CC2
41 to 42 | C=CCCn1cnc2c1c(=O)n(CCCC)c(=O)n2CCCC
229 to 230 | Cc1cc(-c2nc3cccnn3c2-c2ccnc(NC(=O)c3cnccn3)c2)ccc1F
120 to 121 | CCOc1nn(-c2ccc(C(F)(F)F)cn2)cc1CCCOc1cccc(CC(=O)O)c1F
116 to 117 | CCCCNc1c(C(C)=O)cnc2onc(C)c12
258 to 260 | Oc1cc(Br)c2oc(-c3ccc(O)c(F)c3F)nc2c1
216 to 218 | O=C1CC(c2cccc(-n3ccnc3)c2)=Nc2ccc(C#Cc3ccc(F)cc3)cc2N1
134 | CC(=O)NC1(Cc2ccccc2)CCN(Cc2ccccc2)CC1
96.5 to 97.5 | CCOCc1cc2cc(Cl)ccc2oc1=Nc1cccc(OC)c1

melting point [°C] | SMILES
140 to 141 | CCOC(=O)C(=O)Nc1ccc(NC(=O)C(=O)OCC)c(C#N)c1
117 to 119 | CC(C)(C)OC(=O)NCCNC(=O)c1ccc(CO)cc1
147 to 149 | CCc1nnc2c(N(CC)CC)nc3cc(Cl)c(Cl)cc3n12
216 to 217 | CCOc1nsc(N)c1C#N
241 to 242 | Cc1ccc(S(=O)(=O)n2cc(F)c(=O)[nH]c2=O)cc1
106 to 108 | COc1ccccc1CN(CC(=O)OC(C)(C)C)S(=O)(=O)c1ccc2c(Cl)cnc(Cl)c2c1
129 to 130 | Cc1oc(C2CC2)nc1COc1ccc(CC(OC(C)C)C(=O)O)c2ccccc12 (configuration not stated)
168 | O=C1Nc2cccnc2N(CC#CCN2CCOCC2)c2ccccc21
140 to 142 | CCCCC(C(=O)OCC)c1ccc(N2Cc3ccccc3C2=N)cc1 (configuration not stated)
138 to 139 | COc1cc(OC)cc(C(NCC(=O)Nc2c(C(C)C)cccc2C(C)C)c2ccccc2C)c1 (configuration not stated)
196 | COc1cncc(OC)c1C(=O)Nc1ccc(C[C@H](NC(=O)Nc2ccccc2S(=O)(=O)c2ccccc2)C(=O)O)cc1
111 to 112 | Nc1nc(Cl)c2ncn(COCCOCCOC(=O)c3ccccc3)c2n1
116 | NCCNc1ccc([N+](=O)[O-])cc1Cl
166 to 168 | COc1cc(C)cc(S(=O)(=O)c2cccc(N)c2C#N)c1
144 to 146 | COC(=O)c1ccc(C(=O)c2cccnc2)cc1
208 to 210 | CCOc1ccc(N)cc1-c1nc2cccnc2c(=O)[nH]1
158 | C[C@H](NC(=O)OC(C)(C)C)C(=O)Oc1c[nH]c2ccccc12

Continued, compound first:

SMILES | melting point [°C]
CCOC(=O)C1=C(N)NC(N)=C(C(=O)OCC)C1c1ccccc1-c1ccccc1 | 215
CN1CCN(c2cc(Cl)cc3c2c(=O)n(Cc2cccc(Br)c2)c(=O)n3Cc2ccccc2)CC1 | 154 to 157
O=C(Cn1cncc(NC(=O)OCc2ccccc2)c1=O)NC(Cc1ccccc1)C(=O)C(F)(F)F (configuration not stated) | 132 to 134
O=C(Nc1ccc2[nH]c(CO)cc2c1)c1cc2ccccc2o1 | 164 to 165
CN1CCN(C(=O)CCC(=O)N[C@@H]2CN3C(=O)N(c4cc(Cl)nc(Cl)c4)C(=O)[C@@]3(Cc3ccc(OC(F)(F)F)cc3)C2)CC1 | 70
COc1ccc(C=O)c(OC)c1C | 51 to 52
C=C1CC2C3CCC4=CC(=O)CCC4(C)C3=CCC2(C)C1(O)C(C)=O (configuration not stated) | 147 to 162
N#Cc1cc(-c2cccnc2)nn1-c1ccc(NC(=O)c2ccc(OCCCC3OCCO3)nc2)cc1 | 197 to 198
CC(=O)NC(C)(C)c1ccc(C(C)N2CCN(c3ccccc3)CC2)cc1 (configuration not stated) | 169 to 171
COc1ccc(-c2nc3n(c2-c2ccc(OC)cc2)Cc2ccccc2C3)cc1 | 170 to 172
O=C1NC(=O)C(c2ccc(O)cc2)N1 (configuration not stated) | 262
COC1CC2C3CCC4=CC(=O)CCC4(C)C3(F)CCC2(C)C1(OC(C)=O)C(=O)CCl (configuration not stated) | 241 to 244
CC(C)(C)c1cc(-c2csc(C3(N4CCOCC4)CCOCC3)n2)cc(C(C)(C)C)c1O | 172 to 174
O=C(CCCCOc1ccccc1O)C(F)(F)F | 51 to 52
CCOP(=O)(OCC)C(CSC(OC(C)=O)OC(=O)N1CCN(c2cc3c(cc2F)c(=O)c(C(=O)O)cn3CC)CC1)P(=O)(OCC)OCC (configuration not stated) | 89 to 90
CC(=O)N1C(=O)N(c2cc(Cl)cc(Cl)c2)C(=O)[C@]12CN(Cc1ccccc1)C[C@H]2c1ccc(C#N)cc1 (relative stereo) | 224
Cc1cc(F)c(N)cc1-n1cc(C(=O)O)c(=O)c2cc(F)c(N)c(C)c21 | > 240
CC1COCc2nc3c(N)nc4cc(CCC(=O)N5CCOCC5)ccc4c3n21 (configuration not stated) | 245 to 247
Cc1ccc(C(CCCOC(=O)Nc2ccccc2)=NNC(N)=S)cc1 | 170 to 173
CC1c2ccccc2-c2sc(Br)cc2N1S(=O)(=O)c1ccc(O)cc1 (configuration not stated) | 209 to 211
CC1(C)CCC(C)(C)c2cc(C(N)C(=O)NCS(=O)(=O)c3ccccc3)ccc21 (configuration not stated) | 175 to 176

SMILES | melting point [°C]
CC(C)c1cccc(C(C)C)c1NC(=O)Cc1c(-c2ccccc2)c2cc(Cl)ccc2n(C)c1=O | 237 to 238
O=[N+]([O-])c1ccc(-c2cc3c(O)ncnc3o2)cc1 | > 350
CC(=O)Nc1ccn2nc(-c3ccccc3)c(-c3ccc(=O)n(C(C)C)n3)c2c1 | 221 to 222
CCCCCCCCNC(=O)N1CCC(c2nc(N)nc3ccccc23)CC1 | 85 to 87
CCc1nc2c(C)cc(C)nc2n1-c1ccc(CC(C)OC(=O)NS(=O)(=O)c2ccc(C)cc2)cc1 (configuration not stated) | 108
Cn1ncc2c1-c1c(Oc3ccc(O)cc3)sc(C(N)=O)c1CC2 | 137 to 139
CC(C)(C)c1ccc(-c2ccc(C(C)(C)C)c(O)c2)cc1 | 86 to 87
Cc1c(-c2ccc3c(c2)N(C)C(=O)CS3)nc2ccccn12 | 191
CS(=O)(=O)c1ccc(-c2cnn(Cc3ccccc3)c(=O)c2Cl)cc1 | 166 to 167
CCC1Nc2c(cc(C)nc2C)N1c1ccc(CCNC(=O)NS(=O)(=O)c2ccc(C)cc2)cc1 (configuration not stated) | 143
CCC(=O)OCOC(=O)C1=C(C)N(COC)C(C)=C(C(=O)O)[C@@H]1c1cccc([N+](=O)[O-])c1 | 54 to 56
COC(=O)c1cccc(C)c1/C=C/Cc1c(OC)c(C)c2c(c1OC(C)=O)C(=O)OC2 | 104 to 111
CCCN(c1ccncc1)N1C(=O)C2(Cc3ccccc3C2)c2ccccc21 | 159 to 161
NS(=O)(=O)OCCc1ccccn1 | 89 to 91
O=C(CCBr)OCN1C(=O)NC(c2ccccc2)(c2ccccc2)C1=O | 133 to 134
COc1ccc(-n2c(-c3ccccn3)nc(SC)c(C#N)c2=O)cc1 | 246 to 253
Cc1cc(N(C)Cc2ccc(-c3ccc(Cl)cc3)nc2)ccc1OCC(=O)O | 174 to 176
CCCc1ccnc2c(=O)[nH]c(-c3cc(S(=O)(=O)N4CCC(C(=O)O)CC4)ccc3OCC)nc12 | 262 to 264
CCCCNC(=O)c1cc(C(C)(C)C)c(O)c(C(C)(C)C)c1 | 181 to 183
C[C@@H]1S[C@@H](C(=O)Nc2ccc(CN3C(=O)CCCC3=O)cc2)Cc2cc3c(cc2C1=O)OCO3 | 205 to 208
CCCCCCCCCNC(=O)CCC(=O)OO | 85 to 91

SMILES | melting point [°C]
Cc1ccc(C2COc3c(ccc(O)c3C)C2)cc1 (configuration not stated) | 136 to 137
CS(=O)(=O)n1cc(F)c(=O)[nH]c1=O | 223 to 224
CC(C)OC(=O)c1nnc2n1-c1ccc(Cl)cc1C(c1ccccc1Cl)=NC2 | 229 to 230
CCOc1cc(OCCCc2cn(-c3ccc(C(F)(F)F)cn3)nc2OCc2ccccc2)ccc1CCC(=O)O | 106 to 107
CSc1ccc(-c2nn(CC=Cc3ccc(Cl)cc3)c(=O)cc2-c2ccc(F)cc2)cc1 | 119
COc1cc(F)c(C)cc1C(=O)O | 125 to 127
CC(C)(C)Sc1ssc(=S)c1Cl | 45
COC(=O)NCc1cc(OC)cc(Cl)c1Cl | 90 to 91
CCCn1c(=O)c2[nH]c(-c3cc(C)n(CC(=O)Nc4ccc(Cl)c(Cl)c4)n3)nc2n(CCC)c1=O | 298
O=C(O)CC(Br)C(Br)c1ccc(-c2ccccc2)cc1 (configuration not stated) | 200 to 203
CCOC(=O)c1cnc2c(c1O)CCCCCCCCCC2 | 182 to 190
O=C1NCC2=C1c1ccc(Cl)cc1C(c1ccccc1Cl)=NC2 | 195 to 197
C=C1CC2(C)C(=O)CC(O)C2C2CCC3=CC(=O)CCC3C12 (configuration not stated) | 237
CC(C)CC(CO)NC(=O)C(Cc1c[nH]cn1)NC(=O)C(Cc1cccc2ccccc12)NC(=O)COc1cccc2ccccc12 (configuration not stated) | 215 to 217
CCCc1c(C(=O)OCC)c2c3c(ccc2n1C)OC1c2ccc(SC)cc2CCN1C3 (configuration not stated) | 139 to 143
COc1ccc(C(=O)N2CCc3cc(OCc4ccccc4)c(OC)cc3C2=O)cc1OC | 200 to 201
CC(=O)Nc1ccc(-c2nc3ccccc3s2)cc1 | 227 to 229
COCC(NC(=O)OCc1ccccc1)C(=O)NCc1ccccc1 (configuration not stated) | 112 to 114
CCCc1nc(-c2cccnc2)cnc1NN | 162 to 163
CCOc1cc2c(cc1OC)Cc1c([nH]cnc1=O)N2 | 318 to 320

Reference: a melting point compilation (Tetko et al.; mined from patent text by program, amines drawn as free bases though some values may be those of a salt)
